Data from patent US9980993B2, “Nutraceutical supplement with Lactobacillus rhamnosus” (NWO Stem Cure, LLC, priority 2014, dated 2018).

Tested on: human MSC
Assay: Anti-oxidative stress testing, LIVE/DEAD Viability/Cytotoxicity Assay with H2O2
Type: cell-based
Details: MSCs, 12 hours of oxidative stress (100 μM H2O2)
Protocol: The percentage of live and dead cells was determined simultaneously by measuring intracellular esterase activity and plasma membrane integrity using the LIVE/DEAD® Viability/Cytotoxicity Assay Kit (Life Technologies). Briefly, human MSC were plated on 24 wells plate. On, next day cells were treated with ingredients and 100 μM H2O2 for 12 hr. The supernatant media from each well was collected into microtubes and cells were washed with 1×PBS, followed by collection of washes into respective microtubes to collect any floating or dead cells. The cells attached to the bottom of the plate were incubated in 1×PBS in a 37° C. incubator. The microtubes were centrifuged at 2000 rpm for 3 min to get the cell pellet. After removing supernatant, cell pellet was resuspended into 1×PBS containing 2 μM calcein AM and 4 μM ethidium/homodimer. […] The cells were then imaged under 10× objective using fluorescence microscope (Olympus IX71).
The percentage of live and dead cells was determined simultaneously by measuring intracellular esterase activity and plasma membrane integrity using the LIVE/DEAD® Viability/Cytotoxicity Assay Kit (Life Technologies). […] The cells were then imaged under 10× objective using fluorescence microscope (Olympus IX71).
Fluorescence microscope images showing a percentage of live and dead MSCs in 24 wells after 12 hours of treatment with oxidative stress (100 μM H2O2) were examined. […]

## C=C1CC[C@H](O)C/C1=C/C=C1\CCC[C@]2(C)[C@@H]([C@H](C)CCCC(C)C)CC[C@@H]12 [Vitamin D alone (0.3 mg), cholecalciferol]
  Cell Survival Rate Measured by Fluorescence Microscope (%): 2.5%
